According to patent US20260265239A1, “CRYSTAL FORM OF 2,6-PIPERIDINEDIONE COMPOUND, AND PREPARATION METHOD THEREFOR AND USE THEREOF” (ZHANGZHOU PIEN TZE HUANG PHARMACEUTICAL CO., LTD., priority 2023, published 2026):
Structures can show the parent of a compound that is named as a salt.

System: SU-DHL-2
Test: Anti-proliferative effect in lymphoma cell line SU-DHL-2 (CellTiter-Glo)
Format: cell-based, human
Procedure: Objective: This experiment was conducted to detect the inhibitory effect of the compound of formula (I) on cell proliferation in the lymphoma cell line SU-DHL-2.
The tumor cell lines were cultured under the above culture conditions in an incubator at 37° C. and 5% CO2. The cells were passaged periodically, and those in the logarithmic growth phase were harvested for seeding.
• (1) The cells were stained with trypan blue, and the viable cells were counted. • (2) The cell concentration was adjusted to an appropriate concentration.
• (3) 50 μL of cell suspension was added to each well of the culture plate as shown in the figure above. • (4) The culture plate was incubated overnight in an incubator at 37° C., 5% CO2, and 100% relative humidity.
The drug was administered with an Echo655 instrument. A dosing volume of 50 nL was used, with a final DMSO concentration of 0.1%. The culture plate was centrifuged at 1000 rpm for 1 min and incubated at 37° C., 5% CO2, and 100% relative humidity for 4 days. […]

SMILES: O=C1CCC(c2noc3ccc4c(NC(=O)CN5CCN(C[C@H]6CC[C@H](n7cc(NC(=O)c8coc(-c9ccnc(NCC%10CC%10)c9)n8)c(C(F)F)n7)CC6)CC5)cccc4c23)C(=O)N1 (stereo partly shown) [Hydrochloride of Compound of Formula (I)]
- inhibitory effect on cell proliferation (conclusion): excellent inhibitory effect
